This note sets out measurements from US20130245006A1, “NOVEL INDOLIZINE DERIVATIVES, AND PREPARATION AND THERAPEUTIC USE THEREOF” (SANOFI, priority 2010, published 2013).

The nature of this series: Solubility by HPLC relative to a reference sample. The format is physicochemical. The note with it: aqueous buffer, phosphate buffer, at the pH given. The procedure: The evaluation of the solubility of the compounds of the invention is carried out at pH 4 (using a phosphate buffer, […]) by HPLC using an H2O/CH3CN/CH3SO3H gradient, relative to a reference sample (a dilute solution of the product to be evaluated which serves as an internal control). The solubility S results are expressed in mg/ml. Generally, the compounds of the present invention have a solubility S≧4 mg/ml at pH≧4. Among them, mention may be made of the solubilities of the following compounds in the table below: […]

Structures are written as SMILES. ≈ marks a conversion by molar mass, not a printed value.

In general, solubility refers to the concentration that dissolves in the medium under given conditions. Low readings indicate a poorly soluble substance, high ones a readily soluble substance.

As to `CCCCc1cc2cc(C(=O)N(CC(=O)OC)C(C)C)ccn2c1C(=O)c1ccc(CCCN(CC)CCCC)cc1` [compound 62, [(2-Butyl-3-{4-[3-(butylethylamino)propyl]benzoyl}indolizine-7-carbonyl)isopropylamino]acetic acid methyl ester], the solubility is 5300 µg/mL (≈ 9.2 mM).
The same measure for `CCc1cc2cc(C(=O)N(CC)Cc3nnn(C)n3)ccn2c1C(=O)c1ccc(CCCNC(C)(C)C)cc1` [Compound No. 17, 3-[4-(3-tert-Butylaminopropyl)benzoyl]-2-ethylindolizine-7-carboxylic acid ethyl(2-methyl-2H-tetrazol-5-ylmethyl)amide]: 8230 µg/mL (≈ 15.5 mM); for `CCCCc1cc2cc(C(=O)N(CC)[C@@H](C)C(=O)OC)ccn2c1C(=O)c1ccc(CCCN(CCCC)CCCC)cc1` (stereo in doubt) [compound 69, (S)-2-({2-Butyl-3-[4-(3-dibutylaminopropyl)benzoyl]indolizine-7-carbonyl}ethyl-amino)propionic acid methyl ester]: 5720 µg/mL (≈ 9.47 mM); for `CCc1cc2cc(C(=O)N(CC(=O)OC)C(C)C)ccn2c1C(=O)c1ccc(CCCNC2CCCCC2)cc1` [compound 35, ({3-[4-(3-Cyclohexylaminopropyl)benzoyl]-2-ethylindolizine-7-carbonyl}isopropylamino)acetic acid methyl ester]: 1570 µg/mL (≈ 2.88 mM).
Compound `CCCCN(CCCC)CCCc1ccc(C(=O)c2ccc3cc(C(=O)N(CC(=O)OC)C(C)C)ccn23)cc1` [compound 56, ({3-[4-(3-Dibutylamino-propyl)benzoyl]indolizine-7-carbonyl}isopropyl-amino)acetic acid methyl ester] returned a solubility of 8300 µg/mL (≈ 15.2 mM).
In turn, `CCCCc1cc2cc(C(=O)N(CC)Cc3nc(C)no3)ccn2c1C(=O)c1ccc(CCCN(CCCC)CCCC)cc1` [Compound No. 10, 2-Butyl-3-[4-(3-dibutylaminopropyl)benzoyl]indolizine-7-carboxylic acid ethyl(3-methyl-[1,2,4]oxadiazol-5-ylmethyl)amide] returned a solubility of 4980 µg/mL (≈ 8.11 mM). This solubility is about 1.7-fold lower than that of the compound before.
`CCc1cc2cc(C(=O)N(CC)Cc3nnn(C)n3)ccn2c1C(=O)c1ccc(CCC(C)(C)NC(C)(C)C)cc1` [Compound No. 18, 3-[4-(3-tert-Butylamino-3-methylbutyl)benzoyl]-2-ethylindolizine-7-carboxylic acid ethyl(2-methyl-2H-tetrazol-5-ylmethyl)amide] came in with a solubility of 7880 µg/mL (≈ 14.1 mM).
As for `CCc1cc2cc(C(=O)N(CC(=O)OC)C(C)C)ccn2c1C(=O)c1ccc(CCCC2(NC)CCCC2)cc1` [Compound No. 16, [(2-Ethyl-3-(4-[3-(1-methylaminocyclopentyl)propyl]benzoyl}indolizine-7-carbonyl)isopropylamino]acetic acid methyl ester], the solubility was 630 µg/mL (≈ 1.15 mM). This solubility lies about 13-fold lower than the previous one.
`CCCCc1cc2cc(C(=O)N(CC)Cc3nnn[nH]3)ccn2c1C(=O)c1ccc(CCCN(CCCC)CCCC)cc1` [Compound No. 11, 2-Butyl-3-[4-(3-dibutylaminopropyl)benzoyl]indolizine-7-carboxylic acid ethyl(1H-tetrazole-5-ylmethyl)amide] yielded a solubility of 240 µg/mL (≈ 0.4 mM).
With `CCc1cc2cc(C(=O)N(CC(=O)O)C(C)C)ccn2c1C(=O)c1ccc(CCCNC(C)(C)C)cc1` [compound 76, ({3-[4-(3-tert-Butylamino-propyl)benzoyl]-2-ethylindolizine-7-carbonyl}isopropylamino)acetic acid], the solubility stood at 6200 µg/mL (≈ 12.3 mM).
`CCCCc1cc2cc(C(=O)N(CC)CCC(=O)O)ccn2c1C(=O)c1ccc(CCCN(CCCC)CCCC)cc1` [Compound No. 7, 3-({2-Butyl-3-[4-(3-dibutylaminopropyl)benzoyl]indolizine-7-carbonyl}ethylamino)propionic acid] returned a solubility of 7200 µg/mL (≈ 12.2 mM).
`CCc1cc2cc(C(=O)N(CC(=O)OC)C(C)C)ccn2c1C(=O)c1ccc(CCCC2(NC(C)C)CCCC2)cc1` [compound 79, [(2-Ethyl-3-{4-[3-(1-isopropylamino-cyclopentyl)propyl]benzoyl}indolizine-7-carbonyl)isopropylamino]acetic acid methyl ester]: the solubility was found to be 8020 µg/mL (≈ 14 mM). The solubility values of the last two compounds are within 1.5-fold of each other.
`CCCCc1cc2cc(C(=O)N(CC)Cc3nc(C)no3)ccn2c1C(=O)c1ccc(C2CCNCC2)cc1` [compound 80, 2-Butyl-3-(4-piperidin-4-ylbenzoyl)indolizine-7-carboxylic acid ethyl(3-methyl-[1,2,4]oxadizol-5-ylmethyl)amide] had a solubility of 4200 µg/mL (≈ 7.96 mM).
`CCc1cc2cc(C(=O)N3CCC[C@@]3(C)C(=O)OC)ccn2c1C(=O)c1ccc(CCCNC(C)(C)C)cc1` [compound 50, (S)-1-{3-[4-(3-tert-Butylaminopropyl)benzoyl]-2-ethylindolizine-7-carbonyl}-2-methylpyrrolidine-2-carboxylic acid methyl ester] showed a solubility of 8980 µg/mL (≈ 16.9 mM).
`CCCCc1cc2cc(C(=O)N(CC(=O)OC)C(C)C)ccn2c1C(=O)c1ccc(CCCN(CCCC)CCCC)cc1` [compound 28, ({2-Butyl-3-[4-(3-dibutylamino-propyl)benzoyl]indolizine-7-carbonyl}isopropyl-amino)acetic acid methyl ester] returned a solubility of 2420 µg/mL (≈ 4.01 mM).
Compound `CCCCc1cc2cc(C(=O)N3CCC[C@H]3C(=O)OC)ccn2c1C(=O)c1ccc(CCCN(CCCC)CCCC)cc1` [Compound No. 2, (S)-1-{2-Butyl-3-[4-(3-dibutylamino-propyl)benzoyl]indolizine-7-carbonyl}-pyrrolidine-2-carboxylic acid methyl ester] gave a solubility of 6300 µg/mL (≈ 10.5 mM). Against the preceding compound, the solubility is about 2.6-fold higher.
As for `CCCCc1cc2cc(C(=O)N(CC)Cc3nnn(C)n3)ccn2c1C(=O)c1ccc(CCCN(CCCC)CCCC)cc1` [Compound No. 9, 2-Butyl-3-[4-(3-dibutylaminopropyl)benzoyl]indolizine-7-carboxylic acid ethyl(2-methyl-2H-tetrazol-5-ylmethyl)amide], the solubility was found to be 7220 µg/mL (≈ 11.8 mM).
With `CCCCc1cc2cc(C(=O)N(CC)CC(=O)OC)ccn2c1C(=O)c1ccc(CCCN(CCCC)CCCC)cc1` [Compound No. 5, ({2-Butyl-3-[4-(3-dibutylaminopropyl)benzoyl]indolizine-7-carbonyl}ethylamino)acetic acid methyl ester], the solubility came out at 5900 µg/mL (≈ 10 mM). This solubility and that of the compound before are within 1.5-fold of each other.
`CCCCc1cc2cc(C(=O)N(CC)CC(=O)OCC)ccn2c1C(=O)c1ccc(CCCN(CCCC)CCCC)cc1` [compound 26, ({2-Butyl-3-[4-(3-dibutylamino-propyl)benzoyl]indolizine-7-carbonyl}ethylamino)acetic acid ethyl ester] displayed a solubility of 1140 µg/mL (≈ 1.89 mM).
In the case of `CCCCc1cc2cc(C(=O)N(CC)CCOC(C)C)ccn2c1C(=O)c1ccc(CCCN(CCCC)CCCC)cc1` [compound 23, 2-Butyl-3-[4-(3-dibutylaminopropyl)benzoyl]indolizine-7-carboxylic acid ethyl(2-isopropoxyethyl)amide] it was 6170 µg/mL (≈ 10.2 mM); in that of `CCc1cc2cc(C(=O)N(CC(=O)OC)C(C)C)ccn2c1C(=O)c1ccc(CCCN(CC)C(C)C)cc1` [compound 55, [(2-Ethyl-3-{4-[3-(ethylisopropylamino)propyl]benzoyl}indolizine-7-carbonyl)isopropylamino]acetic acid methyl ester], 8820 µg/mL (≈ 16.5 mM); in that of `CCc1cc2cc(C(=O)N(CC(=O)OC)C(C)C)ccn2c1C(=O)c1ccc(CCCNC(C)(C)C)cc1` [compound 31, ({3-[4-(3-tert-Butylaminopropyl)benzoyl]-2-ethylindolizine-7-carbonyl}isopropylamino)acetic acid methyl ester], 2800 µg/mL (≈ 5.39 mM).
`CCCCc1cc2cc(C(=O)N(CC(=O)OC(C)C)C(C)C)ccn2c1C(=O)c1ccc(CCCN(CCCC)CCCC)cc1` [compound 59, ({2-Butyl-3-[4-(3-dibutylaminopropyl)-benzoyl]indolizine-7-carbonyl}-isopropylamino)acetic acid isopropyl ester] returned a solubility of 5700 µg/mL (≈ 9.02 mM).
In turn, `CCc1cc2cc(C(=O)N(CC(=O)OC)C(C)C)ccn2c1C(=O)c1ccc(CCC(C)(C)NC2CCCC2)cc1` [Compound No. 19, ({3-[4-(3-Cyclopentylamino-3-methylbutyl)benzoyl]-2-ethylindolizine-7-carbonyl}isopropylamino)acetic acid methyl ester] displayed a solubility of 7200 µg/mL (≈ 12.9 mM).
As to `CCCCc1cc2cc(C(=O)N(CC(=O)O)C(C)C)ccn2c1C(=O)c1ccc(CCCN(CC)CC)cc1` [compound 75, ({2-Butyl-3-[4-(3-diethylamino-propyl)benzoyl]indolizine-7-carbonyl}isopropylamino)acetic acid], the solubility was 8400 µg/mL (≈ 15.7 mM).
Regarding `CCCN(CCC)CCCc1ccc(C(=O)c2c(CC)cc3cc(C(=O)N(CC(=O)OC)C(C)C)ccn23)cc1` [compound 61, ({3-[4-(3-Dipropylamino-propyl)benzoyl]-2-ethylindolizine-7-carbonyl}isopropylamino)acetic acid methyl ester], the solubility was 8930 µg/mL (≈ 16.3 mM).
The same measure for `CCCCN(CCCC)CCCc1ccc(C(=O)c2c(CC)cc3cc(C(=O)N(CC)CC(=O)OC(C)C)ccn23)cc1` [compound 58, ({3-[4-(3-Dibutylamino-propyl)benzoyl]-2-ethylindolizine-7-carbonyl}ethyl-amino)acetic acid isopropyl ester]: 6300 µg/mL (≈ 10.7 mM).
In the case of `CCc1cc2cc(C(=O)N(CC(=O)OC)C(C)C)ccn2c1C(=O)c1ccc(CCCNC2CCCC2)cc1` [Compound No. 8, ({3-[4-(3-Cyclopentylaminopropyl)benzoyl]-2-ethylindolizine-7-carbonyl}isopropylamino)acetic acid methyl ester], the solubility stood at 4900 µg/mL (≈ 9.22 mM).
Turning to `CCCCc1cc2cc(C(=O)N(CC)CC(=O)O)ccn2c1C(=O)c1ccc(CCCN(CCCC)CCCC)cc1` [Compound No. 6, ({2-Butyl-3-[4-(3-dibutylaminopropyl)benzoyl]indolizine-7-carbonyl}ethylamino)acetic acid], the solubility was found to be 4900 µg/mL (≈ 8.51 mM).
